Experimental data: PMC4971072, “Chemically Homogenous Compounds with Antagonistic Properties at All α1-Adrenoceptor Subtypes but not β1-Adrenoceptor Attenuate Adrenaline-Induced Arrhythmia in Rats” (Frontiers in Pharmacology, 2016)
Where a name gives a salt, the structure may show the parent alone. Marks after values point to notes of the source that are not given here.

Tests used:
normal ECG in rats = test: The effect on normal electrocardiogram in rats; type: in vivo, rat; conditions: anesthetized rats; for influence on ECG parameters (PQ interval, QRS complex, QTc interval) / Beats/min (ECG) / PQ (ECG) / QRS (ECG) / QT (ECG) / QTc (ECG, Bazett): i.p. at ED84; for reduction of heart rate: i.p. at ED84, over the period of significant effect vs. initial values
Protocol: The experiment was carried out to exclude the influence of tested compounds on normal ECG. […] The influence on QRS complex, PQ interval, heart rate (RR), and QTc interval was determined.

α1D-adrenoreceptors = molecular target: T1, α1D-adrenoreceptors (Rattus norvegicus, UniProt P23944); test: Functional bioassay, isolated rat aorta, noradrenaline contraction; type: biochemical; design: had aorta removed, denuded of endothelium and incubated in the Krebs-Henseleit solution; from tissue; host or cells: isolated rat aorta rings; conditions: noradrenaline as agonist; for Kb: read-out: pA2 ± S.E.M., α1D (converted)
T1 sequence (P23944 1-561): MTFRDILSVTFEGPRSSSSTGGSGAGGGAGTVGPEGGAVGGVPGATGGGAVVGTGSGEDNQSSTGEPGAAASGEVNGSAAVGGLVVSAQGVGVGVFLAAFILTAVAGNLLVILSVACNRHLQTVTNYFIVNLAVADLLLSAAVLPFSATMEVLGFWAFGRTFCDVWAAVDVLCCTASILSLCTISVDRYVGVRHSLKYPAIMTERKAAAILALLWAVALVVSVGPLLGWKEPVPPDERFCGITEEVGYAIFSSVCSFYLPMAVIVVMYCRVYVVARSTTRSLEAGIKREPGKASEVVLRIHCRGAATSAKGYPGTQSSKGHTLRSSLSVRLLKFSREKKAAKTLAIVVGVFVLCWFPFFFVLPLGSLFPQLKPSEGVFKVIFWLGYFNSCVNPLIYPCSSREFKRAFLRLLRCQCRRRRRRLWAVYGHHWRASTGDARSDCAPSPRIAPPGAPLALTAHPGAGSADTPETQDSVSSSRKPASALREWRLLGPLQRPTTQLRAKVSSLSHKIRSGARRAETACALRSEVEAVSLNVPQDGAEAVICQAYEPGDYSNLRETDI
Protocol: Finally, the influence on α1D-adrenoreceptors was investigated using the isolated rat aorta. […] The aorta rings were maintained at optimal tension of 2.0 g. During 3 h of equilibration tissues were stimulated with noradrenaline three times (0.3 μM). Two cumulative concentration-response curves to noradrenaline, at an interval of 60 min, were established on each tissue both in the presence and absence of antagonist. The incubation with antagonists went on for 30 min. The experiments were carried out in the constant presence of yohimbine (0.1 μM) and propranolol (1 μM) to block α2- and β-adrenoceptors, respectively.
Data are means ± S.E.M. of at least 4 separate experiments. To establish Hill slopes for the agonist concentration–response curves and calculate EC50 values, curves were fitted to all the data by non-linear regression. The EC50 value in the presence and absence of antagonists was used to ascertain the concentration ratio (CR). Schild analysis was performed.

β1-adrenergic receptor = molecular target: T2, β1-adrenergic receptor (Rattus norvegicus, UniProt P18090); test: β1-adrenoceptor radioligand binding assay ([3H]-CGP-12177, rat cerebral cortex); conditions: read-out: Adrenergic receptors Ki β1
T2 construct: The brains were homogenized in 20 volumes of an ice-cold 50 mM Tris-HCl buffer; from tissue; host or cells: rat cerebral cortex membranes
Protocol: The α1- and β1-adrenoceptor radioligand binding assay was performed on rat cerebral cortex. […] The cell pellet was resuspended in the Tris–HCl buffer and centrifuged again. Radioligand binding assays were performed in plates (MultiScreen/Millipore). […] The incubation was terminated by rapid filtration through glass fiber filters (Whatman GF/C) using a vacuum manifold (Millipore). The filters were then washed twice with the assay buffer and placed in scintillation vials with a liquid scintillation cocktail. […] All the assays were made in duplicate and the inhibitory constants (Ki) were estimated.
LO–labeled ligand concentration, KD–dissociation constant of labeled ligand

[1] = tested on: lipid peroxidation in rat brain homogenate; test: Lipid peroxidation in rat brain homogenate (TBARS), antioxidant effect; type: biochemical; conditions: 10^−3 M; for % reduction of absorbance (% antioxidant activity) / Absorbance: TBARs at 532 nm
Protocol: The rat brain homogenate containing 10 mg tissue/ml was prepared in 0.9% saline. The rates of membrane lipid peroxidation were measured by the formation of thiobarbituric acid reactive substances (TBARS). Rat brain homogenates (1 ml) were incubated at 37°C for 5 min with 10 μl of a tested compound or vehicle. Lipid peroxidation was initiated by the addition of 50 μl of 0.5 mM FeCl2 and 50 μl of 2.0 mM ascorbic acid. After 30 min of incubation, the reaction was stopped by adding 0.1 ml of 0.2% butylated hydroxytoluene (BHT). Thiobarbituric acid reagent was then added and the mixture was heated for 15 min in a boiling water bath.

T2 sequence (P18090 whole entry): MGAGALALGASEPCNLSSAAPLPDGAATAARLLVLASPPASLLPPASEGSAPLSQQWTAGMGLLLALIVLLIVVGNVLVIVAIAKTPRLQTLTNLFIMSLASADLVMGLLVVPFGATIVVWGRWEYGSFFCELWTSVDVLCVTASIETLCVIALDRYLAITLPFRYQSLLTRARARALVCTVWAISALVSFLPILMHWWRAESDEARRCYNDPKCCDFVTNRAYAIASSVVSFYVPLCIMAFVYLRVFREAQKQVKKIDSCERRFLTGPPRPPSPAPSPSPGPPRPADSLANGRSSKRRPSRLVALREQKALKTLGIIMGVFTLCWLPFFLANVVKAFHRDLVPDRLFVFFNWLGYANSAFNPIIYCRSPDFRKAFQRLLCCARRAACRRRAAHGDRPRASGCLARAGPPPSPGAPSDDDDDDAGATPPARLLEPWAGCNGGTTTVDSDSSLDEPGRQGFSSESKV

COc1ccccc1N1CCN(CCCOc2cc(C)ccc2Cl)CC1 [HBK-16, 1N-[3-(2-chloro-5-methylphenoxy)propyl]-4N-(2-methoxyphenyl)piperazine hydrochloride]
influence on ECG parameters (PQ interval, QRS complex, QTc interval) (normal ECG in rats): did not influence PQ interval, QRS complex or QTc interval
reduction of heart rate (normal ECG in rats): 11−13%
Beats/min (ECG) (normal ECG in rats; 0 min (initial values)): 329.6 ± 9.8 Beats/min
PQ (ECG) (normal ECG in rats; 0 min (initial values)): 64.4 ± 1.1 ms
QRS (ECG) (normal ECG in rats; 0 min (initial values)): 21.7 ± 2.2 ms
QT (ECG) (normal ECG in rats; 0 min (initial values)): 51.4 ± 3.5 ms
QTc (ECG, Bazett) (normal ECG in rats; 0 min (initial values)): 120.5 ± 8.7 ms
Beats/min (ECG) (normal ECG in rats; 5 min): 331.4 ± 12.5 Beats/min
PQ (ECG) (normal ECG in rats; 5 min): 63.7 ± 1.1 ms
QRS (ECG) (normal ECG in rats; 5 min): 21.7 ± 2.2 ms
QT (ECG) (normal ECG in rats; 5 min): 51.2 ± 3.5 ms
QTc (ECG, Bazett) (normal ECG in rats; 5 min): 120.7 ± 9.7 ms
Beats/min (ECG) (normal ECG in rats; 10 min): 330.1 ± 12.4 Beats/min
PQ (ECG) (normal ECG in rats; 10 min): 63.6 ± 0.9 ms
QRS (ECG) (normal ECG in rats; 10 min): 21.7 ± 2.2 ms
QT (ECG) (normal ECG in rats; 10 min): 51.2 ± 3.3 ms
QTc (ECG, Bazett) (normal ECG in rats; 10 min): 120.2 ± 8.8 ms
Beats/min (ECG) (normal ECG in rats; 15 min): 319.4 ± 10.3 Beats/min
PQ (ECG) (normal ECG in rats; 15 min): 63.9 ± 1.1 ms
QRS (ECG) (normal ECG in rats; 15 min): 21.7 ± 2.2 ms
QT (ECG) (normal ECG in rats; 15 min): 50.1 ± 3.6 ms
QTc (ECG, Bazett) (normal ECG in rats; 15 min): 115.8 ± 9.6 ms
Beats/min (ECG) (normal ECG in rats; 20 min): 310.6 ± 9.8 Beats/min
PQ (ECG) (normal ECG in rats; 20 min): 65.1 ± 1.2 ms
QRS (ECG) (normal ECG in rats; 20 min): 21.7 ± 2.2 ms
QT (ECG) (normal ECG in rats; 20 min): 51.4 ± 3.1 ms
QTc (ECG, Bazett) (normal ECG in rats; 20 min): 117.3 ± 8.7 ms
Beats/min (ECG) (normal ECG in rats; 30 min): 302.8 ± 11.0 Beats/min
PQ (ECG) (normal ECG in rats; 30 min): 64.4 ± 1.1 ms
QRS (ECG) (normal ECG in rats; 30 min): 21.7 ± 2.2 ms
QT (ECG) (normal ECG in rats; 30 min): 52.7 ± 3.7 ms
QTc (ECG, Bazett) (normal ECG in rats; 30 min): 119.0 ± 10.3 ms
Beats/min (ECG) (normal ECG in rats; 40 min): 294.1 ± 12.2^a Beats/min
PQ (ECG) (normal ECG in rats; 40 min): 65.9 ± 0.8 ms
QRS (ECG) (normal ECG in rats; 40 min): 21.7 ± 2.2 ms
QT (ECG) (normal ECG in rats; 40 min): 53.5 ± 2.8 ms
QTc (ECG, Bazett) (normal ECG in rats; 40 min): 118.9 ± 8.4 ms
Beats/min (ECG) (normal ECG in rats; 50 min): 291.4 ± 13.0^b Beats/min
PQ (ECG) (normal ECG in rats; 50 min): 67.3 ± 1.6 ms
QRS (ECG) (normal ECG in rats; 50 min): 22.0 ± 2.1 ms
QT (ECG) (normal ECG in rats; 50 min): 54.7 ± 2.8 ms
QTc (ECG, Bazett) (normal ECG in rats; 50 min): 121.1 ± 8.7 ms
Beats/min (ECG) (normal ECG in rats; 60 min): 288.0 ± 13.8^b Beats/min
PQ (ECG) (normal ECG in rats; 60 min): 68.2 ± 0.9 ms
QRS (ECG) (normal ECG in rats; 60 min): 22.3 ± 2.0 ms
QT (ECG) (normal ECG in rats; 60 min): 55.5 ± 2.4 ms
QTc (ECG, Bazett) (normal ECG in rats; 60 min): 122.0 ± 7.7 ms
Schild slope ± S.E.M., α1D (α1D-adrenoreceptors): 1.11 ± 0.12
Kb (α1D-adrenoreceptors): 0.724 nM
Ki (β1-adrenergic receptor): > 10000 nM
inhibition of lipid peroxidation (in words) [1]: inhibited lipid peroxidation
% reduction of absorbance (% antioxidant activity) [1]: 16.63%
Absorbance [1]: 0.752 ± 0.007

COc1ccccc1N1CCN(CCCOc2c(C)cc(C)cc2C)CC1 [HBK-18, 1N-[3-(2,4,6-trimethylphenoxy)propyl]-4N-(2-methoxyphenyl)piperazine hydrochloride]
influence on ECG parameters (PQ interval, QRS complex, QTc interval) (normal ECG in rats): did not affect PQ interval, QRS complex or QTc interval
reduction of heart rate (normal ECG in rats): 13−23%
Beats/min (ECG) (normal ECG in rats; 0 min (initial values)): 328.0 ± 7.4 Beats/min
PQ (ECG) (normal ECG in rats; 0 min (initial values)): 61.3 ± 4.6 ms
QRS (ECG) (normal ECG in rats; 0 min (initial values)): 28.1 ± 3.1 ms
QT (ECG) (normal ECG in rats; 0 min (initial values)): 73.9 ± 6.2 ms
QTc (ECG, Bazett) (normal ECG in rats; 0 min (initial values)): 172.4 ± 13.5 ms
Beats/min (ECG) (normal ECG in rats; 5 min): 306.9 ± 9.0 Beats/min
PQ (ECG) (normal ECG in rats; 5 min): 61.5 ± 6.3 ms
QRS (ECG) (normal ECG in rats; 5 min): 30.4 ± 3.2 ms
QT (ECG) (normal ECG in rats; 5 min): 77.0 ± 7.0 ms
QTc (ECG, Bazett) (normal ECG in rats; 5 min): 174.2 ± 16.3 ms
Beats/min (ECG) (normal ECG in rats; 10 min): 298.7 ± 8.9 Beats/min
PQ (ECG) (normal ECG in rats; 10 min): 57.4 ± 4.2 ms
QRS (ECG) (normal ECG in rats; 10 min): 30.8 ± 3.6 ms
QT (ECG) (normal ECG in rats; 10 min): 77.7 ± 4.9 ms
QTc (ECG, Bazett) (normal ECG in rats; 10 min): 173.4 ± 11.7 ms
Beats/min (ECG) (normal ECG in rats; 15 min): 284.7 ± 7.6^a Beats/min
PQ (ECG) (normal ECG in rats; 15 min): 55.8 ± 1.6 ms
QRS (ECG) (normal ECG in rats; 15 min): 27.0 ± 2.9 ms
QT (ECG) (normal ECG in rats; 15 min): 76.1 ± 5.8 ms
QTc (ECG, Bazett) (normal ECG in rats; 15 min): 166.4 ± 14.5 ms
Beats/min (ECG) (normal ECG in rats; 20 min): 273.9 ± 8.0^b Beats/min
PQ (ECG) (normal ECG in rats; 20 min): 51.9 ± 3.8 ms
QRS (ECG) (normal ECG in rats; 20 min): 29.1 ± 2.7 ms
QT (ECG) (normal ECG in rats; 20 min): 77.9 ± 4.2 ms
QTc (ECG, Bazett) (normal ECG in rats; 20 min): 166.9 ± 11.1 ms
Beats/min (ECG) (normal ECG in rats; 30 min): 267.4 ± 17.5^c Beats/min
PQ (ECG) (normal ECG in rats; 30 min): 56.9 ± 3.5 ms
QRS (ECG) (normal ECG in rats; 30 min): 28.5 ± 2.8 ms
QT (ECG) (normal ECG in rats; 30 min): 75.3 ± 3.2 ms
QTc (ECG, Bazett) (normal ECG in rats; 30 min): 159.0 ± 9.7 ms
Beats/min (ECG) (normal ECG in rats; 40 min): 260.3 ± 22.8^c Beats/min
PQ (ECG) (normal ECG in rats; 40 min): 57.4 ± 3.1 ms
QRS (ECG) (normal ECG in rats; 40 min): 28.6 ± 2.8 ms
QT (ECG) (normal ECG in rats; 40 min): 76.9 ± 4.9 ms
QTc (ECG, Bazett) (normal ECG in rats; 40 min): 160.4 ± 14.4 ms
Beats/min (ECG) (normal ECG in rats; 50 min): 258.9 ± 25.4^c Beats/min
PQ (ECG) (normal ECG in rats; 50 min): 59.0 ± 3.8 ms
QRS (ECG) (normal ECG in rats; 50 min): 27.6 ± 3.0 ms
QT (ECG) (normal ECG in rats; 50 min): 76.0 ± 2.9 ms
QTc (ECG, Bazett) (normal ECG in rats; 50 min): 157.2 ± 9.9 ms
Beats/min (ECG) (normal ECG in rats; 60 min): 252.3 ± 25.1^c Beats/min
PQ (ECG) (normal ECG in rats; 60 min): 59.6 ± 4.7 ms
QRS (ECG) (normal ECG in rats; 60 min): 30.9 ± 3.8 ms
QT (ECG) (normal ECG in rats; 60 min): 76.7 ± 3.5 ms
QTc (ECG, Bazett) (normal ECG in rats; 60 min): 157.1 ± 12.0 ms
Schild slope ± S.E.M., α1D (α1D-adrenoreceptors): 1.01 ± 0.05
Kb (α1D-adrenoreceptors): 1.2 nM
Ki (β1-adrenergic receptor): > 10000 nM
inhibition of lipid peroxidation (in words) [1]: inhibited lipid peroxidation
% reduction of absorbance (% antioxidant activity) [1]: 13.41%
Absorbance [1]: 0.781 ± 0.004
